Experimental data from ChEMBL document CHEMBL1151339, “Antitumor agents from bohemic acid complex, III. The isolation of marcellomycin, musettamycin, rudolphomycin, mimimycin, collinemycin, alcindoromycin, and bohemamine” (J Nat Prod, 1980).
≈ marks a conversion by molar mass, not a printed value.

Key:
[1] = test system: Mus musculus; test: Toxicity in BDF1 mouse xenografted with mouse L1210 cells assessed as survival at 6.4 mg/kg, ip after 5 days; assay type: organism-based; set-up: dose 6.4 mg/kg, route intraperitoneal; conditions: in vivo, 120 h
[2] = test system: B16; test: Antitumor activity against mouse B16 cells xenografted in BDF1 mouse assessed as median survival time at 1.6 mg/kg; assay type: functional
[3] = test system: B16; test: Antitumor activity against mouse B16 cells xenografted in BDF1 mouse assessed as median survival time at 0.8 mg/kg; assay type: functional
[4] = test system: Pseudomonas aeruginosa; test: Antibacterial activity against Pseudomonas aeruginosa A-9843A by 2-fold tube dilution method; assay type: functional
[5] = test system: Enterococcus faecalis; test: Antibacterial activity against Streptococcus faecalis A20688 by 2-fold tube dilution method; assay type: functional
[6] = test system: Staphylococcus; test: Antibacterial activity against penicillin resistant Staphylococcus A-9606 by 2-fold tube dilution method; assay type: functional
[7] = test system: Streptococcus pneumoniae; test: Antibacterial activity against Streptococcus pneumoniae A-9585 by 2-fold tube dilution method; assay type: functional
[8] = test system: Staphylococcus aureus; test: Antibacterial activity against Staphylococcus aureus A-9497 by 2-fold tube dilution method; assay type: functional
[9] = test system: Klebsiella pneumoniae; test: Antibacterial activity against Klebsiella pneumoniae A15130 by 2-fold tube dilution method; assay type: functional
[10] = test system: Proteus vulgaris; test: Antibacterial activity against Proteus vulgaris A21559 by 2-fold tube dilution method; assay type: functional
[11] = test system: Serratia marcescens; test: Antibacterial activity against Serratia marcescens A20019 by 2-fold tube dilution method; assay type: functional
[12] = test system: Enterobacter cloacae; test: Antibacterial activity against Enterobacter cloacae A-9659 by 2-fold tube dilution method; assay type: functional
[13] = test system: Candida albicans; test: Antifungal activity against Candida albicans A-9540 by 2-fold tube dilution method; assay type: functional
[14] = test system: Candida albicans; test: Antifungal activity against Candida albicans A15049 by 2-fold tube dilution method; assay type: functional
[15] = test system: Candida albicans; test: Antifungal activity against Candida albicans A15050 by 2-fold tube dilution method; assay type: functional
[16] = test system: Trichophyton mentagrophytes; test: Antifungal activity against Trichophyton mentagrophytes A-9870 by 2-fold tube dilution method; assay type: functional
[17] = test system: Microsporum canis; test: Antifungal activity against Microsporum canis A-9872 by 2-fold tube dilution method; assay type: functional
[18] = test system: L1210; test: Antitumor activity against mouse L1210 cells xenografted in BDF1 mouse assessed as median survival time at 3.2 mg/kg, ip; assay type: functional; conditions: route intraperitoneal
[19] = test system: L1210; test: Antitumor activity against mouse L1210 cells xenografted in BDF1 mouse assessed as median survival time at 0.8 mg/kg, ip; assay type: functional; conditions: route intraperitoneal
[20] = test system: L1210; test: Antitumor activity against mouse L1210 cells xenografted in BDF1 mouse assessed as median survival time at 0.4 mg/kg, ip; assay type: functional; conditions: route intraperitoneal
[21] = test system: L1210; test: Antitumor activity against mouse L1210 cells xenografted in BDF1 mouse at 3.2 mg/kg, ip relative to control; assay type: functional; conditions: route intraperitoneal
[22] = test system: L1210; test: Antitumor activity against mouse L1210 cells xenografted in BDF1 mouse at 1.6 mg/kg, ip relative to control; assay type: functional; conditions: route intraperitoneal
[23] = test system: L1210; test: Antitumor activity against mouse L1210 cells xenografted in BDF1 mouse at 0.8 mg/kg, ip relative to control; assay type: functional; conditions: route intraperitoneal
[24] = test system: L1210; test: Antitumor activity against mouse L1210 cells xenografted in BDF1 mouse at 0.4 mg/kg, ip relative to control; assay type: functional; conditions: route intraperitoneal
[25] = test system: L1210; test: Antitumor activity against mouse L1210 cells xenografted in BDF1 mouse assessed as change in tumor average weight at 0.8 mg/kg, ip; assay type: functional; conditions: route intraperitoneal
[26] = test system: Mus musculus; test: Toxicity in BDF1 mouse xenografted with mouse L1210 cells assessed as survival at 12.8 mg/kg, ip after 5 days; assay type: organism-based; set-up: dose 12.8 mg/kg, route intraperitoneal; conditions: in vivo, 120 h
[27] = test system: Mus musculus; test: Toxicity in BDF1 mouse xenografted with mouse B16 cells assessed as survival at 0.05 mg/kg after 5 days; assay type: organism-based; set-up: dose 0.05 mg/kg
[28] = test system: Mus musculus; test: Toxicity in BDF1 mouse xenografted with mouse B16 cells assessed as survival at 0.025 mg/kg after 5 days; assay type: organism-based; set-up: dose 0.025 mg/kg
[29] = test system: Mus musculus; test: Toxicity in BDF1 mouse xenografted with mouse L1210 cells assessed as survival at 0.8 mg/kg, ip after 5 days; assay type: organism-based; set-up: dose 0.8 mg/kg, route intraperitoneal; conditions: in vivo, 120 h
[30] = test system: Mus musculus; test: Toxicity in BDF1 mouse xenografted with mouse L1210 cells assessed as survival at 0.4 mg/kg, ip after 5 days; assay type: organism-based; set-up: dose 0.4 mg/kg, route intraperitoneal; conditions: in vivo, 120 h
[31] = test system: B16; test: Antitumor activity against mouse B16 cells xenografted in BDF1 mouse assessed as median survival time at 0.4 mg/kg; assay type: functional
[32] = test system: B16; test: Antitumor activity against mouse B16 cells xenografted in BDF1 mouse assessed as median survival time at 0.2 mg/kg; assay type: functional
[33] = test system: B16; test: Antitumor activity against mouse B16 cells xenografted in BDF1 mouse assessed as median survival time at 0.1 mg/kg; assay type: functional
[34] = test system: B16; test: Antitumor activity against mouse B16 cells xenografted in BDF1 mouse assessed as median survival time at 0.05 mg/kg; assay type: functional
[35] = test system: B16; test: Antitumor activity against mouse B16 cells xenografted in BDF1 mouse assessed as median survival time at 0.025 mg/kg; assay type: functional
[36] = test system: B16; test: Antitumor activity against mouse B16 cells xenografted in BDF1 mouse at 3.2 mg/kg relative to control; assay type: functional
[37] = test system: B16; test: Antitumor activity against mouse B16 cells xenografted in BDF1 mouse at 1.6 mg/kg relative to control; assay type: functional
[38] = test system: B16; test: Antitumor activity against mouse B16 cells xenografted in BDF1 mouse at 0.8 mg/kg relative to control; assay type: functional
[39] = test system: B16; test: Antitumor activity against mouse B16 cells xenografted in BDF1 mouse at 0.4 mg/kg relative to control; assay type: functional
[40] = test system: B16; test: Antitumor activity against mouse B16 cells xenografted in BDF1 mouse at 0.2 mg/kg relative to control; assay type: functional
[41] = test system: B16; test: Antitumor activity against mouse B16 cells xenografted in BDF1 mouse at 0.1 mg/kg relative to control; assay type: functional
[42] = test system: B16; test: Antitumor activity against mouse B16 cells xenografted in BDF1 mouse at 0.05 mg/kg relative to control; assay type: functional
[43] = test system: B16; test: Antitumor activity against mouse B16 cells xenografted in BDF1 mouse assessed as change in tumor average weight at 1.6 mg/kg; assay type: functional
[44] = test system: B16; test: Antitumor activity against mouse B16 cells xenografted in BDF1 mouse assessed as change in tumor average weight at 0.8 mg/kg; assay type: functional
[45] = test system: B16; test: Antitumor activity against mouse B16 cells xenografted in BDF1 mouse assessed as change in tumor average weight at 0.4 mg/kg; assay type: functional
[46] = test system: B16; test: Antitumor activity against mouse B16 cells xenografted in BDF1 mouse assessed as change in tumor average weight at 0.2 mg/kg; assay type: functional
[47] = test system: B16; test: Antitumor activity against mouse B16 cells xenografted in BDF1 mouse assessed as change in tumor average weight at 0.1 mg/kg; assay type: functional
[48] = test system: B16; test: Antitumor activity against mouse B16 cells xenografted in BDF1 mouse assessed as change in tumor average weight at 0.05 mg/kg; assay type: functional
[49] = test system: B16; test: Antitumor activity against mouse B16 cells xenografted in BDF1 mouse assessed as change in tumor average weight at 0.025 mg/kg; assay type: functional
[50] = test system: Mus musculus; test: Toxicity in BDF1 mouse xenografted with mouse B16 cells assessed as survival at 0.8 mg/kg after 5 days; assay type: organism-based; set-up: dose 0.8 mg/kg
[51] = test system: Mus musculus; test: Toxicity in BDF1 mouse xenografted with mouse B16 cells assessed as survival at 0.2 mg/kg after 5 days; assay type: organism-based; set-up: dose 0.2 mg/kg

## CC[C@@]1(O)C[C@H](O[C@H]2C[C@H](N(C)C)[C@H](O[C@H]3C[C@H](O)[C@H](O[C@@H]4O[C@@H](C)C(=O)C=C4N)[C@@H](C)O3)[C@@H](C)O2)c2c(cc3c(c2O)C(=O)c2c(O)ccc(O)c2C3=O)[C@H]1C(=O)OC [RUDOLPHOMYCIN]
[1]
  Activity: Toxic
[2]
  Activity: 32 days
[3]
  Activity: 29 days
[4]
  MIC: > 125 mg/L
[5]
  MIC: 1 mg/L (≈ 1.19 µM)
[6]
  MIC: 32 mg/L (≈ 38.1 µM)
[7]
  MIC: 0.06 mg/L (≈ 0.0714 µM)
[8]
  MIC: 1 mg/L (≈ 1.19 µM)
[9]
  MIC: > 125 mg/L
[10]
  MIC: > 125 mg/L
[11]
  MIC: > 125 mg/L
[12]
  MIC: > 125 mg/L
[13]
  MIC: > 16 mg/L
[14]
  MIC: > 16 mg/L
[15]
  MIC: > 16 mg/L
[16]
  MIC: > 16 mg/L
[17]
  MIC: > 16 mg/L
[18]
  Activity: 8 days
[19]
  Activity: 9 days
[20]
  Activity: 8 days
[21]
  T/C: 107%
[22]
  T/C: 133%
[23]
  T/C: 120%
[24]
  T/C: 107%
[25]
  Activity: -1.6 g
[26]
  Activity: Toxic
[27]
  AC50: Non-toxic
[28]
  AC50: Non-toxic
[29]
  Activity: Non-toxic
[30]
  Activity: Non-toxic
[31]
  Activity: 26.5 days
[32]
  Activity: 26 days
[33]
  Activity: 27.5 days
[34]
  Activity: 22 days
[35]
  Activity: 22.5 days
[36]
  T/C: 115%
[37]
  T/C: 160%
[38]
  T/C: 145%
[39]
  T/C: 133%
[40]
  T/C: 130%
[41]
  T/C: 138%
[42]
  T/C: 110%
[43]
  Activity: -2.5 g
[44]
  Activity: -0.2 g
[45]
  Activity: -0.8 g
[46]
  Activity: -1 g
[47]
  Activity: -0.4 g
[48]
  Activity: -0.8 g
[49]
  Activity: -0.9 g
[50]
  AC50: Non-toxic
[51]
  AC50: Non-toxic
